Data from US9695155B2, “Herbicidal substituted pyrimidinyloxy benzene compounds” (E. I. DU PONT DE NEMOURS AND COMPANY, priority 2013, dated 2017).

Legend:
corn = assay: Test A postemergence; assay type: in vivo, Zea mays
Summary of the method: (§1)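 Greenhouse pot test, loam/sand soil. Formulation: non-phytotoxic solvent mix plus surfactant. Pre: directed spray onto soil after sowing. Post: plants at 1–2 leaf, 2–10 cm. Rated visually vs untreated controls at ~10 d, 0 (no effect) to 100 (complete control).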

ragweed = assay: Test C postemergence; assay type: in vivo, Ambrosia elatior
Summary of the method: (§2)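 Visual ratings on a 0–100 scale (100 = complete control) were made versus untreated controls after 13–15 greenhouse days. Chemicals in a surfactant-containing non-phytotoxic solvent were applied either preemergence to seeds in loam–sand soil or postemergence to 1- to 4-leaf plants 2–18 cm tall.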

pigweed [1] = assay: Test C postemergence; assay type: in vivo, Amaranthus retroflexus
Summary of the method: as §2

galium = assay: Test C postemergence; assay type: in vivo, Galium aparine
Summary of the method: as §2

velvetleaf [2] = assay: Test C postemergence; assay type: in vivo, Abutilon theophrasti
Summary of the method: as §2

pigweed [3] = assay: Test A preemergence; assay type: in vivo, Amaranthus retroflexus
Summary of the method: as §1

oilseed rape = assay: Test C postemergence; assay type: in vivo, Brassica napus
Summary of the method: as §2

large (Lg) crabgrass = assay: Test A preemergence; assay type: in vivo, Digitaria sanguinalis
Summary of the method: as §1

velvetleaf [4] = assay: Test A preemergence; assay type: in vivo, Abutilon theophrasti
Summary of the method: as §1

morningglory = assay: Test A preemergence; assay type: in vivo, Ipomoea spp.
Summary of the method: as §1

wheat = assay: Test A postemergence; assay type: in vivo, Triticum aestivum
Summary of the method: as §1

[5] = 31 g ai/ha, postemergence, visual rating, scale 0 to 100 (0 no effect, 100 complete control), 13 to 15 days
[6] = 1000 g ai/ha, 0 to 100 scale, 0 no effect, 100 complete control
[7] = Postemergence, 31 g ai/ha, scale 0 to 100 (0 no effect, 100 complete control), 13 to 15 days
[8] = Postemergence, 62 g ai/ha, scale 0 to 100 (0 no effect, 100 complete control)
[9] = 1000 g ai/ha, 0 to 100 scale, 0 no effect, 100 complete control, approx. 10 days

Fc1cccc(Oc2ncc(Cl)cn2)c1-n1cc(Br)cn1 [Compound 178, 2-[2-(4-bromo-1H-pyrazol-1-yl)-3-fluorophenoxy]-5-chloropyrimidine]
plant injury at 125 g/ha (corn; Zea mays, post-emergence, 240 h, 125 g ai/ha, 0 to 100 scale where 0 is no effect and 100 is complete control, read-out: Corn plant response rating): 30%
Corn plant response rating (crop injury, 0 = no effect, 100 = complete kill) at 500 g/ha (corn; Zea mays, post-emergence, 240 h, 500 g ai/ha, 0 to 100 scale where 0 is no effect and 100 is complete control): 70%
Ragweed plant response rating (ragweed; [5]): 55
pest or weed control at 16 g/ha (ragweed; Ambrosia artemisiifolia, post-emergence, 16 g ai/ha, postemergence, 0 is no effect, 100 is complete control, read-out: Plant response rating (0 to 100), Ragweed): 20%
pest or weed control at 125 g/ha (ragweed; Ambrosia artemisiifolia, post-emergence, 125 g ai/ha, postemergence, visual rating, scale 0 to 100 (0 no effect, 100 complete control), read-out: Plant response rating, Ragweed): 65%
pest or weed control at 62 g/ha (ragweed; Ambrosia artemisiifolia, post-emergence, Postemergence, 62 g ai/ha, scale 0 to 100 (0 no effect, 100 complete control), read-out: Plant response rating, Ragweed): 30%
Pigweed plant response rating (pigweed [1]; [5]): 85
pest or weed control at 16 g/ha (pigweed [1]; Amaranthus retroflexus, post-emergence, 16 g ai/ha, postemergence, 0 is no effect, 100 is complete control, read-out: Plant response rating (0 to 100), Pigweed): 80%
pest or weed control at 125 g/ha (pigweed [1]; Amaranthus retroflexus, post-emergence, 125 g ai/ha, postemergence, visual rating, scale 0 to 100 (0 no effect, 100 complete control), read-out: Plant response rating, Pigweed): 98%
pest or weed control at 62 g/ha (pigweed [1]; Amaranthus retroflexus, post-emergence, Postemergence, 62 g ai/ha, scale 0 to 100 (0 no effect, 100 complete control), read-out: Plant response rating, Pigweed): 95%
pest or weed control at 16 g/ha (galium; Galium, post-emergence, 16 g ai/ha, postemergence, 0 is no effect, 100 is complete control, read-out: Plant response rating (0 to 100), Galium): 80%
pest or weed control at 31 g/ha (galium; Galium, post-emergence, 31 g ai/ha, postemergence, visual rating, scale 0 to 100 (0 no effect, 100 complete control), 13 to 15 days, read-out: Galium plant response rating): 75%
pest or weed control at 125 g/ha (galium; Galium, post-emergence, 125 g ai/ha, postemergence, visual rating, scale 0 to 100 (0 no effect, 100 complete control), read-out: Plant response rating, Galium): 98%
pest or weed control at 62 g/ha (galium; Galium, post-emergence, Postemergence, 62 g ai/ha, scale 0 to 100 (0 no effect, 100 complete control), read-out: Plant response rating, Galium): 85%
Velvetleaf plant response rating (velvetleaf [2]; [5]): 70
pest or weed control at 16 g/ha (velvetleaf [2]; Abutilon theophrasti, post-emergence, 16 g ai/ha, postemergence, 0 is no effect, 100 is complete control, read-out: Plant response rating (0 to 100), Velvetleaf): 50%
pest or weed control at 125 g/ha (velvetleaf [2]; Abutilon theophrasti, post-emergence, 125 g ai/ha, postemergence, visual rating, scale 0 to 100 (0 no effect, 100 complete control), read-out: Plant response rating, Velvetleaf): 100%
pest or weed control at 62 g/ha (velvetleaf [2]; Abutilon theophrasti, post-emergence, Postemergence, 62 g ai/ha, scale 0 to 100 (0 no effect, 100 complete control), read-out: Plant response rating, Velvetleaf): 85%
Pigweed plant response rating (0 to 100 scale) (pigweed [3]; 125 g ai/ha): 100
pest or weed control at 500 g/ha (pigweed [3]; Amaranthus retroflexus, pre-emergence, 240 h, 500 g ai/ha, 0 to 100 scale where 0 is no effect and 100 is complete control, read-out: Pigweed plant response rating): 100%
Oilseed Rape plant response rating (oilseed rape; [5]): 85
plant injury at 16 g/ha (oilseed rape; Brassica napus, post-emergence, 16 g ai/ha, postemergence, 0 is no effect, 100 is complete control, read-out: Plant response rating (0 to 100), Oilseed Rape): 70%
plant injury at 125 g/ha (oilseed rape; Brassica napus, post-emergence, 125 g ai/ha, postemergence, visual rating, scale 0 to 100 (0 no effect, 100 complete control), read-out: Plant response rating, Oilseed Rape): 98%
plant injury at 62 g/ha (oilseed rape; Brassica napus, post-emergence, Postemergence, 62 g ai/ha, scale 0 to 100 (0 no effect, 100 complete control), read-out: Plant response rating, Oilseed Rape): 90%
pest or weed control at 125 g/ha (large (Lg) crabgrass; Digitaria sanguinalis, pre-emergence, 240 h, 125 g ai/ha, 0 to 100 scale where 0 is no effect and 100 is complete control, read-out: Plant response rating, Crabgrass, Large): 100%
pest or weed control at 500 g/ha (large (Lg) crabgrass; Digitaria sanguinalis, pre-emergence, 240 h, 500 g ai/ha, 0 to 100 scale where 0 is no effect and 100 is complete control, read-out: Crabgrass, Large plant response rating): 100%
Velvetleaf plant response rating (0 to 100 scale) (velvetleaf [4]; 125 g ai/ha): 80
pest or weed control at 500 g/ha (velvetleaf [4]; Abutilon theophrasti, pre-emergence, 240 h, 500 g ai/ha, 0 to 100 scale where 0 is no effect and 100 is complete control, read-out: Velvetleaf plant response rating): 100%
Morningglory plant response rating (0 to 100 scale) (morningglory; 125 g ai/ha): 10
pest or weed control at 500 g/ha (morningglory; Ipomoea, pre-emergence, 240 h, 500 g ai/ha, 0 to 100 scale where 0 is no effect and 100 is complete control, read-out: Morningglory plant response rating): 90%
plant injury at 125 g/ha (wheat; Triticum aestivum, post-emergence, 240 h, 125 g ai/ha, 0 to 100 scale where 0 is no effect and 100 is complete control, read-out: Wheat plant response rating): 40%
plant injury at 500 g/ha (wheat; Triticum aestivum, post-emergence, 240 h, 500 g ai/ha, 0 to 100 scale where 0 is no effect and 100 is complete control, read-out: Plant response rating, Wheat): 80%

Clc1cnc(Oc2cccc(Br)c2-n2cc(Br)cn2)nc1 [Compound 65]
Plant response rating, Corn (corn; [6]): 70
Plant response rating (0 to 100), Ragweed (ragweed; 125 g ai/ha, postemergence): 35
Plant response rating, Ragweed (ragweed; [7]): 5
Plant response rating, Ragweed (ragweed; [8]): 25
Plant response rating (0 to 100), Pigweed (pigweed [1]; 125 g ai/ha, postemergence): 98
Plant response rating, Pigweed (pigweed [1]; [7]): 90
Plant response rating, Pigweed (pigweed [1]; [8]): 95
Galium plant response rating (galium; 16 g ai/ha, postemergence, visual rating, scale 0 to 100 (0 no effect, 100 complete control), 13 to 15 days): 100
Plant response rating (0 to 100), Galium (galium; 125 g ai/ha, postemergence): 98
Plant response rating, Galium (galium; [7]): 50
Plant response rating, Galium (galium; [8]): 85
Plant response rating (0 to 100), Velvetleaf (velvetleaf [2]; 125 g ai/ha, postemergence): 65
Plant response rating, Velvetleaf (velvetleaf [2]; [7]): 50
Plant response rating, Velvetleaf (velvetleaf [2]; [8]): 55
Pigweed plant response rating (pigweed [3]; [9]): 100
Plant response rating (0 to 100), Oilseed Rape (oilseed rape; 125 g ai/ha, postemergence): 90
Plant response rating, Oilseed Rape (oilseed rape; [7]): 25
Plant response rating, Oilseed Rape (oilseed rape; [8]): 60
Plant response rating, Crabgrass, Large (large (Lg) crabgrass; [6]): 100
Velvetleaf plant response rating (velvetleaf [4]; [9]): 100
Morningglory plant response rating (morningglory; [9]): 100
Plant response rating, Wheat (wheat; [6]): 60
